Experimental data from patent publication US7049396B2, “Synthetic peptides that inhibit leukocyte superoxide anion production and/or attract leukocytes” (priority 1995, dated 2006).
Values after ≈ are worked out from the molar mass of the structure shown. Where a SMILES comes first, the peptide text is derived from it.

What was measured:
[1] = system: whole-cell NADPH oxidase activity of porcine peripheral blood neutrophils; test: Whole-cell O2- production, ferricytochrome c reduction; assay type: cell-based
Protocol: Regulation of neutrophil O2^− production by PR-26 and PR-39. • (i) O2^− production assays. Whole-cell O2^− production by por-cine peripheral blood neutrophils was determined by the superoxide dismutase-inhibitable reduction of ferricytochrome c as previously described (Shi et al., 1994a). Cell-free O2^− production was measured as previously described (Leto et al., 1991) using 96-well plates and a Molecular Devices Thermomax microplate reader (Menlo Park, Calif.). Reactions (100 μl) contained 10^6 cell equivalents of human neutrophil cytosol and 5×10^5 cell equivalents of deoxycholate-solubilized membranes prepared from human peripheral blood neutrophils. Reaction mixtures contained 50 mM potassium phosphate (pH 7), 0.2 mM acetylated cytochrome c, 4 mM MgCl2, 1 mM EGTA, 10 μM FAD, 1 μM GTP-γS, and 200 μM NADPH. The reactions were initiated by addition of 40 μM arachidonic acid. Control reactions contained 5 μg of superoxide dismutase. Superoxide anion generation was calculated based on superoxide dismutase-inhibitable changes in cytochrome c absorbance observed at 551 nm. The reactions were followed for 20 min. after addition of arachidonic acid, with absorbance readings taken at 1-min. intervals. Maximum rates of superoxide generation were calculated from a linear least squares fit of 10 consecutive 1-min. data points. Determinations were based on reactions performed in duplicate. • (ii) Binding assays. Neutrophils were disrupted by sonication, and unbroken cells, debris, and granules were removed by centrifuigation (13,000×g for 60 min.). Cytosol fractions were prepared by centrifugation (100,000 g for 45 min.) of the supernatants to remove residual membranes. Cytosolic proteins (15 μg in reducing buffer) were separated on a 7.5% SDS PAGE gel, transferred to PVDF membranes, and probed with biotinylated PR-39 (0.3 μM) for 2 hr. Binding between PR-39 and cytosolic proteins were visualized by a chemiluminescent streptavidin alkaline phosphatase system using an Epson scanner (Torrance, Calif.) and the NIH Image program. PR-39 was labeled with biotin hydrazide at the carboxy-terminus (Pierce Chemical Co., Rockford, Ill.) and purified by gel filtration chromatography.

[2] = system: S. typhimurium, KSU isolate 7; test: Lawn-spotting antibacterial assay (S. typhimurium); assay type: cell-based, Salmonella typhimurium; settings: 5 μl spotted, inactive segments up to 1 mg/ml
E. coli, ATCC 25922 = test: Gel-overlay antibacterial assay; assay type: cell-based, Escherichia coli; settings: 10 μg peptide per lane, AU-PAGE gel overlaid with E. coli, 18 hr
[3] = system: S. choleraesuis, ATCC 6962; test: Bacterial susceptibility to neutrophil phagocytosis; assay type: cell-based, Salmonella choleraesuis; settings: bacteria treated at 8 MICs
Protocol: Plates were incubated at 37° C. for 18 hr. […] Viable bacteria were counted. Tests were repeated on three different days. […] The results were expressed as the mean ± standard deviation. […] S. choleraesuis, ATCC 6962 was used in this experiment. […] Slides were stained with LeukoStat solutions (Fisher, Pittsburgh, Pa.). […] At least 200 neutrophils were examined. […] Tests were repeated on three different days. Results were expressed as the mean±standard deviation.

E. coli, ATTC 25922 = test: Lawn-spotting antibacterial assay (E. coli); assay type: cell-based, Escherichia coli; settings: 5 μl spotted, inactive segments up to 1 mg/ml
p67^phox = test: Ligand-blot binding assay with biotinylated PR-39, p67phox; settings: neutrophil cytosolic proteins probed with biotinylated PR-39
Protocol: Regulation of neutrophil O2^− production by PR-26 and PR-39. • (i) O2^− production assays. Whole-cell O2^− production by por-cine peripheral blood neutrophils was determined by the superoxide dismutase-inhibitable reduction of ferricytochrome c as previously described (Shi et al., 1994a). Cell-free O2^− production was measured as previously described (Leto et al., 1991) using 96-well plates and a Molecular Devices Thermomax microplate reader (Menlo Park, Calif.). Reactions (100 μl) contained 10^6 cell equivalents of human neutrophil cytosol and 5×10^5 cell equivalents of deoxycholate-solubilized membranes prepared from human peripheral blood neutrophils. Reaction mixtures contained 50 mM potassium phosphate (pH 7), 0.2 mM acetylated cytochrome c, 4 mM MgCl2, 1 mM EGTA, 10 μM FAD, 1 μM GTP-γS, and 200 μM NADPH. The reactions were initiated by addition of 40 μM arachidonic acid. Control reactions contained 5 μg of superoxide dismutase. Superoxide anion generation was calculated based on superoxide dismutase-inhibitable changes in cytochrome c absorbance observed at 551 nm. The reactions were followed for 20 min. after addition of arachidonic acid, with absorbance readings taken at 1-min. intervals. Maximum rates of superoxide generation were calculated from a linear least squares fit of 10 consecutive 1-min. data points. […]

[4] = system: rat intestinal epithelial cell line, IEC-6; assay type: cell-based
Protocol: Influence of PR-26 and PR-39 on intestinal epithelial cells. A nonradioactive assay based on the cellular conversion by viable cells of a tetrazolium salt into a blue formazan product was used to determine if PR-26 or PR-39 were toxic to intestinal epithelial cells. Ninety-six-well microtiter plates were seeded with the rat intestinal epithelial cell line, IEC-6, (5×10^4 cells/well) in DMEM containing 10% fetal bovine serum, 1% antibiotic/antimycotic, and […], and incubated at 37° C. for three days to achieve confluency. […] Well contents then were aspirated and monolayers were washed with medium. Medium (100 μl) and 15 μl of dye solution (Promega, Madison, Wis.) were added to each well and plates were incubated for 4 hr. at 37° C. Solubilization buffer (100 μl, Promega, Madison, Wis.) was added to each well and plates were incubated overnight to allow solubilization of the formazan crystals. Absorbance then was read at 570 nm using a microplate reader.

Protocol for Escherichia coli, K88: Briefly, 50 μl of twofold serial dilutions (128 to 0.25 μM) of synthetic peptides were dispensed into wells of 96-well tissue culture plates. Bacteria (E. coli, ATCC 25922; E. coli, K88; S. typhimurium, fresh isolate from a dog; Salmonella choleraesuis ATCC 6962; Streptococcus suis, fresh isolate from porcine spleen; and Staphylococcus aureus) from sheep-blood or brain-heart-infusion agar plates were standardized to 0.5 McFarland in demineralized water using a radiometer/sensititre (Chelsea Instrument Ltd., England). The water/bacteria suspension (100 μl) was immediately transferred to 10 ml of cation-adjusted Muller-Hinton broth and 50 μl of the bacterial suspension then were added to each well of the microtiter plate. Plates were incubated for 20 hr. at 37° C. and MICs were determined. Ten microliters of bacterial suspensions in Muller-Hinton broth also were diluted to determine the actual bacterial concentration using standard colony forming unit (CFU) counting. After determination of the MICs, 10 μl of each bacteria-peptide suspension were plated on sheep-blood or brain-heart-infusion agar plates and incubated for 24 hr. at 37° C. to determine the MBCs. MBC was considered that peptide concentration that inhibited 99.9% of the original CFUs (NCCLS, 1990). • (iv) PAE.

SMILES: CC[C@H](C)[C@H](NC(=O)[C@H](CCCNC(=N)N)NC(=O)[C@@H]1CCCN1C(=O)[C@@H]1CCCN1C(=O)[C@H](CC(C)C)NC(=O)[C@H](CCCNC(=N)N)NC(=O)[C@@H]1CCCN1C(=O)[C@@H]1CCCN1C(=O)[C@H](Cc1ccccc1)NC(=O)[C@H](Cc1ccccc1)NC(=O)[C@@H]1CCCN1C(=O)[C@@H]1CCCN1C(=O)[C@@H]1CCCN1C(=O)[C@H](CCCNC(=N)N)NC(=O)[C@@H]1CCCN1C(=O)[C@H](CCCNC(=N)N)NC(=O)[C@@H]1CCCN1C(=O)[C@H](CC(C)C)NC(=O)[C@H](Cc1ccc(O)cc1)NC(=O)[C@@H]1CCCN1C(=O)[C@@H]1CCCN1C(=O)[C@H](CCCNC(=N)N)NC(=O)[C@@H]1CCCN1C(=O)[C@H](CCCNC(=N)N)NC(=O)[C@H](CCCNC(=N)N)NC(=O)[C@@H](N)CCCNC(=N)N)C(=O)N1CCC[C@H]1C(=O)N1CCC[C@H]1C(=O)NCC(=O)N[C@@H](Cc1ccccc1)C(=O)N1CCC[C@H]1C(=O)N1CCC[C@H]1C(=O)N[C@@H](CCCNC(=N)N)C(=O)N[C@@H](Cc1ccccc1)C(=O)N1CCC[C@H]1C(=O)N1CCC[C@H]1C(=O)N[C@@H](CCCNC(=N)N)C(=O)N[C@@H](Cc1ccccc1)C(=O)N1CCC[C@H]1C(=O)O [PR-39] (H-RRRPRPPYLPRPRPPPFFPPRLPPRIPPGFPPRFPPRFP-OH; N-terminus and C-terminus assumed)
- O2- generation by neutrophils ([1]; 5 μM, incubated at least 45 min. before PMA stimulation): significant reduction
- oxidase inhibition ([1]; 5 μM, longer pre-incubation periods before PMA): ~70%
- O2- generation by neutrophils ([1]; 20 μM added at the same time as PMA): did not affect
- MBC (Escherichia coli, K88): 4 µM (≈ 18.9 µg/mL)
- MIC (Escherichia coli, K88): 2 µM (≈ 9.44 µg/mL)
- antibacterial activity (clear zone on bacterial lawn) [2]: had antibacterial activity
- antibacterial activity (clear zones on overlaid gel) (E. coli, ATCC 25922): antibacterial activity
- phagocytic index of porcine neutrophils [3]: did not increase
- antibacterial activity (clear zone on bacterial lawn) (E. coli, ATTC 25922): had antibacterial activity
- binding to p67phox (p67^phox): did not bind
- concentration at which cytotoxicity occurred [4]: 500 nM
